Source: patent US20230357179A1, “RAF KINASE INHIBITORS AND METHODS OF USE THEREOF” (Deciphera Pharmaceuticals, LLC, priority 2021, published 2023)

Legend:
[1] = system: A375 cells; test: A375 cell proliferation assay (1), resazurin, 96-well; assay type: cell-based; settings: Homo sapiens, A-375, inhibition of cell proliferation
Method in brief: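 Viability was read by resazurin fluorescence at 540 nm excitation and 600 nm emission, using a 440 μM solution added for 5–6 h at the end of culture. IC50 came from the curve fit.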

[2] = molecular target: T1, C-Raf kinase (Homo sapiens, UniProt P04049, Y340D/Y341D); test: Biochemical assay for C-Raf.1 (coupled pyruvate kinase/lactate dehydrogenase); settings: read-out: CRAF.1 IC50
T1 construct: Y340D,; GST (N); purchased Sigma
Method in brief: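 NADH depletion at 340 nm monitored continuously for 6 h at 30° C, with rates taken over 4–5 h. The coupled pyruvate kinase/lactate dehydrogenase reaction used 1 mM ATP, 30.1 nM MEK substrate and 0.43 nM kinase at pH 7.5. IC50 was fitted sigmoidally from percent inhibition of serially diluted compound.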

[3] = system: H2405 cells; test: H2405 cell proliferation assay (1), resazurin, 96-well; assay type: cell-based; settings: Homo sapiens, NCI-H2405, inhibition of cell proliferation
Method in brief: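 This is a resazurin viability readout (excitation 540 nm, emission 600 nm) taken 5-6 h after adding 440 μM resazurin solution, giving IC50 values.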

[4] = system: WM3928 cells; test: WM3928 cell proliferation assay (1), resazurin, 96-well; assay type: cell-based; settings: inhibition of cell proliferation
Method: WM3928 Cell Proliferation Assay (1)
WM3928 cells (#WM3928-01-0001) are obtained from Rockland Immunochemicals Inc (Gilbertsville, PA). Briefly, cells were grown in MCDB 153 medium (Sigma, #M7403, St. Louis, MO) supplemented with 20% Leibovitz's L-15 (ThermoFisher #11415-064, Waltham, MA), 2% heat inactivated fetal bovine serum (ThermoFisher, #A3840001, Waltham, MA), 5 μg/mL Insulin (Bovine Pancreas) (Sigma, #I0516, St. Louis, MO), 1.68 mM Calcium Chloride (Sigma, #C-34006, St. Louis, MO) and 1% Penicillin/Streptomycin/L-Glutamine (ThermoFisher #10378016, Waltham, MA) at 37° C., 5% CO2, and 95% humidity. Cells are expanded until reaching 70-95% confluency at which point they are subcultured or harvested for assay use. A serial dilution of test compound is dispensed into a 96-well black clear bottom plate in triplicate. Three thousand cells are added per well in 200 μL complete growth medium in the 96-well plate. Plates are incubated for 67-72 hours at 37° C., 5% CO2, and 95% humidity. At the end of the incubation, 40 μL of a 440 μM solution of resazurin (Sigma, #199303, St. Louis, MO) in PBS is added to each well of the plate and plates are incubated for an additional 6-7 hours at 37° C., 5% CO2, and 95% humidity. Plates are read on a Synergy2 or equivalent reader (Biotek, Winooski VT) using an excitation of 540 nm and an emission of 600 nm. Data is analyzed using Prism software (GraphPad, San Diego, CA) to calculate IC50 values.

T1 sequence (P04049 307-648 Y340D/Y341D): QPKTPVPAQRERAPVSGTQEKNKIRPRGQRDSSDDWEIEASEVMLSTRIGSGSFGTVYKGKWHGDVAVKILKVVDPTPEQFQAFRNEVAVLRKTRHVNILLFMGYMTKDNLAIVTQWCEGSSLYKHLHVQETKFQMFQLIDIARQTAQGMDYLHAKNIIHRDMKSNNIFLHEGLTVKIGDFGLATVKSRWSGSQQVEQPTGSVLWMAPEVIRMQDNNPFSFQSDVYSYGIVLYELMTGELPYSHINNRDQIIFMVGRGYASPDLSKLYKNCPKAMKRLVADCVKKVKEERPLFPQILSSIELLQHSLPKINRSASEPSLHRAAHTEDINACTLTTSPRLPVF

SMILES	IC50 [1] [nM]	IC50 [2] [nM]	IC50 [3] [nM]	IC50 [4] [nM]
Cc1ccc(NC(=O)N2CCC(F)(F)C2)cc1-c1cncc(-c2cc(NC(=O)C3CC3)ncn2)c1 [Example 209]	1000 to 10000	≤ 100	1000 to 10000	1000 to 10000
COC(=O)Nc1cc(-c2nccc(-c3cc(NC(=O)N4CCC(C(F)(F)F)C4)ccc3C)n2)ccn1 (stereo not shown) [Example 193]	1000 to 10000	≤ 100	1000 to 10000	–
Cc1ccc(NC(=O)N2CCC3(CC3)C2)cc1-c1cncc(-c2cc(NC(=O)C3CC3)ncn2)c1 [Example 218]	100 to 500	≤ 100	100 to 500	100 to 500
COC(C)(C)CCNC(=O)Nc1ccc(C)c(-c2cc(-c3cnn(C)c3)nc(N3CCOCC3)c2)c1 [Example 38]	1000 to 10000	≤ 100	–	–
Cc1ccc(NC(=O)Nc2ccnc(C(C)(C)C#N)c2)cc1-c1ccnc(-c2ccnc(C(=O)NC3CC3)c2)c1 [Example 68]	1000 to 10000	≤ 100	–	–
CNC(=O)c1cc(-c2cnnc(-c3cc(NC(=O)N4CC[C@H](OC)C4)ccc3C)c2)ccn1 [Example 177]	1000 to 10000	> 1000	1000 to 10000	–
CNC(=O)c1cc(-c2cnnc(-c3cc(NC(=O)N4CCC5(CC5)C4)ccc3C)c2)ccn1 [Example 178]	1000 to 10000	500 to 1000	1000 to 10000	–
COC(=O)Nc1cc(-c2cnnc(-c3cc(NC(=O)N4CCC(C(C)(C)C)C4)ccc3C)c2)ccn1 (stereo not shown) [Example 185]	100 to 500	≤ 100	100 to 500	–
Cc1cc(F)c(NC(=O)NCCC2(C)CC2)cc1-c1cccc(-c2ccnc(NC(=O)C3CC3)c2)c1 [Example 64]	1000 to 10000	≤ 100	–	100 to 500
Cc1ccc(NC(=O)NCCC(C)(C)C)cc1-c1ccnc(N2CCOCC2)c1 [Example 18]	1000 to 10000	≤ 100	–	–
Cc1ccc(NC(=O)N2CCC(CC(F)(F)F)C2)cc1-c1cncc(-c2cc(N)ncn2)c1 (stereo not shown) [Example 207]	1000 to 10000	≤ 100	–	500 to 1000
CC(=O)Nc1cc(-c2cc(-c3cc(NC(=O)Nc4ccc(C(F)(F)F)cc4)cnc3C)ccn2)ccn1 [Example 48]	1000 to 10000	≤ 100	–	–
COC[C@@H]1CCN(C(=O)Nc2cnc(C)c(-c3ccnc(-c4ccnc(NC(=O)OC)c4)c3)c2)C1 [Example 179]	1000 to 10000	100 to 500	1000 to 10000	–
CNC(=O)c1cc(-c2cc(-c3cc(NC(=O)Nc4ccnc(C(C)(C)C#N)c4)ccc3C)ccn2)ccn1 [Example 69]	1000 to 10000	≤ 100	1000 to 10000	–
CC(=O)Nc1cc(-c2cc(-c3cc(NC(=O)NCCC4(C)CC4)ccc3C)cc(N3CCOCC3)n2)ccn1 [Example 57]	100 to 500	≤ 100	–	–
COC(=O)Nc1cc(-c2cnnc(-c3cc(NC(=O)N4CCC(C(C)(C)O)C4)ccc3C)c2)ccn1 (stereo not shown) [Example 206]	1000 to 10000	100 to 500	–	1000 to 10000
CNC(=O)c1cc(-c2cnnc(-c3cc(NC(=O)N4CCC(C(C)(C)C)C4)cnc3C)c2)ccn1 (stereo not shown) [Example 184]	1000 to 10000	500 to 1000	1000 to 10000	–
CNC(=O)c1cc(-c2cnnc(-c3cc(NC(=O)N4CCC(C(C)(C)C)C4)ccc3C)c2)ccn1 (stereo not shown) [Example 180]	100 to 500	100 to 500	1000 to 10000	–
Cc1ccc(NC(=O)Nc2cnc(C(F)(F)F)s2)cc1-c1cc(OCCO)nc(N2CCOCC2)c1 [Example 43]	≤ 100	≤ 100	100 to 500	–
COC(C)(C)CCNC(=O)Nc1ccc(C)c(-c2cc(-c3ccnc(NC(C)=O)c3)n(C)c(=O)c2)c1 [Example 60]	1000 to 10000	100 to 500	–	–
COC[C@H]1CCN(C(=O)Nc2cnc(C)c(-c3ccnc(-c4ccnc(NC(=O)OC)c4)c3)c2)C1 [Example 176]	1000 to 10000	100 to 500	1000 to 10000	–
CNC(=O)c1cc(-c2cccc(-c3cc(NC(=O)NCCC(C)(C)OC)c(F)cc3C)c2)ccn1 [Example 72]	1000 to 10000	≤ 100	–	–
CNC(=O)c1cc(-c2cnnc(-c3cc(NC(=O)N4CC[C@@H](OC)C4)ccc3C)c2)ccn1 [Example 181]	1000 to 10000	> 1000	1000 to 10000	–
CNC(=O)c1cc(-c2cnnc(-c3cc(NC(=O)N4CC[C@@H](OC(F)(F)F)C4)ccc3C)c2)ccn1 [Example 182]	1000 to 10000	100 to 500	1000 to 10000	–
Cc1ccc(NC(=O)Nc2cn(C)nc2C(F)(F)F)cc1-c1cc(OCCO)nc(N2CCOCC2)c1 [Example 42]	1000 to 10000	> 1000	1000 to 10000	–
Cc1cc(F)c(NC(=O)NCCC2(C(F)(F)F)CC2)cc1-c1cc(OCCO)nc(C2CCOCC2)c1 [Example 24]	100 to 500	≤ 100	100 to 500	–
Cc1cc(F)c(NC(=O)NCCC2(C)CC2)cc1-c1cccc(-c2cc(NC(=O)C3CC3)ncn2)c1 [Example 65]	1000 to 10000	≤ 100	–	100 to 500

Second part, led by results:

IC50 [1] [nM]	IC50 [2] [nM]	IC50 [3] [nM]	SMILES	IC50 [4] [nM]
1000 to 10000	≤ 100	–	Cc1ccc(NC(=O)N[C@H]2C[C@](C)(F)C2)cc1-c1cc(OCCO)nc(-c2ccnc(NC(=O)CN(C)C)c2)c1 [Example 50]	–
≤ 100	≤ 100	–	CC(=O)Nc1cc(-c2cc(-c3cc(NC(=O)NC4CCCCC4)c(F)cc3C)cc(OCCO)n2)ccn1 [Example 53]	–
500 to 1000	≤ 100	100 to 500	COC(C)(C)CCNC(=O)Nc1cc(-c2cnnc(-c3ccnc(NC(=O)C4CC4)c3)c2)c(C)cc1F [Example 173]	–
100 to 500	≤ 100	≤ 100	CC(=O)Nc1cc(-c2cc(-c3cc(NC(=O)NCCC4(C)CC4)c(F)cc3C)cc(NCCO)n2)ccn1 [Example 175]	–
1000 to 10000	≤ 100	–	CC(=O)Nc1cc(-c2cc(-c3cc(NC(=O)NCC45CC(F)(C4)C5)c(F)cc3C)cc(OCCO)n2)ccn1 [Example 52]	–
100 to 500	≤ 100	–	CC(=O)Nc1cc(-c2cc(-c3cc(NC(=O)NCCC4(C(F)(F)F)CC4)c(F)cc3C)cc(C3CC3)n2)ccn1 [Example 54]	–
1000 to 10000	≤ 100	–	CC(=O)Nc1cc(-c2cc(-c3cc(NC(=O)NCCC4(C)CC4)c(F)cc3C)cc(C3CC3)n2)ccn1 [Example 51]	–
100 to 500	≤ 100	–	CNC(=O)c1cc(-c2cc(-c3cc(NC(=O)NC4CCCCC4)c(F)cc3C)cc(OCCO)n2)ccn1 [Example 205]	–
1000 to 10000	≤ 100	100 to 500	CC(=O)Nc1cc(-c2cc(-c3cc(NC(=O)N[C@H]4C[C@](C)(F)C4)ccc3C)cc(OCCO)n2)ccn1 [Example 49]	–
1000 to 10000	≤ 100	–	COC(C)(C)CCNC(=O)Nc1cc(-c2cccc(-c3ccnc(NC(C)=O)c3)c2)c(C)cc1F [Example 71]	–
500 to 1000	≤ 100	500 to 1000	COC(=O)Nc1cc(-c2cc(-c3cc(NC(=O)NCCC4(C)CC4)c(F)cc3F)cc(OCCO)n2)ccn1 [Example 188]	–
≤ 100	≤ 100	–	CC(=O)Nc1cc(-c2cc(-c3cc(NC(=O)NC4CCC(F)(F)CC4)c(F)cc3C)cc(OCCO)n2)ccn1 [Example 63]	–
≤ 100	≤ 100	–	CC(=O)Nc1cc(-c2cc(-c3cc(NC(=O)NC4CC(C)(C)C4)c(F)cc3C)cc(OCCO)n2)ccn1 [Example 47]	–
1000 to 10000	≤ 100	1000 to 10000	COC(=O)Nc1cc(-c2cc(-c3cc(NC(=O)NCCC4(C)CC4)ccc3F)cc(OCCO)n2)ccn1 [Example 187]	–
1000 to 10000	≤ 100	–	Cc1ccc(NC(=O)N[C@H]2C[C@](C)(F)C2)cc1-c1cc(-c2ccnc(NC(=O)C3CC3)c2)nc(C2CC2)c1 [Example 61]	–
1000 to 10000	≤ 100	500 to 1000	COC(=O)Nc1cc(-c2nc(OCCO)cc(-c3cc(NC(=O)NC4CC(C)(C)C4)cnc3C)n2)ccn1 [Example 174]	–
1000 to 10000	≤ 100	–	CC(=O)Nc1cc(-c2cc(-c3cc(NC(=O)NCCC4(C)CC4)c(F)cc3C)cc(C)n2)ccn1 [Example 55]	–
1000 to 10000	≤ 100	–	CC(=O)Nc1cc(-c2cc(-c3cc(NC(=O)NCCC(C)(C)C#N)c(F)cc3C)cc(C3CC3)n2)ccn1 [Example 59]	–
